For 30 compounds, EC50 results are on record in patent US20240199572A1, “COMPOUNDS, COMPOSITIONS, AND METHODS FOR TREATING TYPE 2 DIABETES AND DEMENTIA” (THE BOARD OF TRUSTEES OF THE UNIVERSITY OF ILLINOIS, priority 2021, published 2024).

A word on the EC50: it is the concentration giving half of the maximal effect. Low values mean a more potent agent, high ones a less potent agent.

One assay relates to ABCA1. Description: ABCA1 firefly reporter assay in CCF-001 cells. The assay is classed as cell-based. The following applies: ABCA1 firefly reporter assay in CCF-001 cells (Table 8).
As to `CCOc1ccc(N(C)S(=O)(=O)c2ccsc2C(=O)Nc2cccc(C(=O)OC)c2)cc1` [CL1-87, Methyl 3-(3-(N-(4-ethoxyphenyl)-N-methylsulfamoyl)thiophene-2-carboxamido) benzoate], the EC50 worked out at 3970 nM. On the same count and under the same terms, then `CCOC(=O)c1cccc(NC(=O)c2sccc2S(=O)(=O)N(C)c2cccc(OCC)c2)c1` [CL2-1, Ethyl 3-(3-(N-(3-ethoxyphenyl)-N-methylsulfamoyl)thiophene-2-carboxamido)benzoate], with 4640 nM.

Regarding `CCCOc1ccc(N(C)S(=O)(=O)c2ccsc2C(=O)Nc2cccc(C(=O)OCC)c2)cc1` [CL2-16, Ethyl 3-(3-(N-methyl-N-(4-propoxyphenyl)sulfamoyl)thiophene-2-carboxamido) benzoate], the EC50 amounted to 2360 nM. The compound `CCOc1ccc(N(C)S(=O)(=O)c2cc(Cl)sc2C(=O)Nc2cccc(S(C)(=O)=O)c2)cc1OCC` [CL2-63, 5-Chloro-3-(N-(3,4-diethoxyphenyl)-N-methylsulfamoyl)-N-(3-(methylsulfonyl)phenyl)thiophene-2-carboxamide] came in with a concentration for a half-maximal effect (EC50) of 12600 nM. Same read-out and setting: then `CCOC(=O)c1cccc(NC(=O)c2sc(Cl)cc2S(=O)(=O)N(C)c2ccc(OCC)c(OC)c2)c1` [CL2-85, Ethyl 3-(5-chloro-3-(N-(4-ethoxy-3-methoxyphenyl)-N-methylsulfamoyl)thiophene-2-carboxamido)benzoate], with 190 nM; and `CCOC(=O)c1cccc(NC(=O)c2sc(Cl)cc2S(=O)(=O)N(C)c2ccc(OCC)cc2F)c1` [CL2-143, Ethyl 3-(5-chloro-3-(N-(4-ethoxy-2-fluorophenyl)-N-methylsulfamoyl)thiophene-2-carboxamido)benzoate], with 1620 nM; and `CCOc1ccc(N(C)S(=O)(=O)c2cc(Cl)sc2C(=O)Nc2cc(Cl)ccc2F)cc1OC` [GR1-001, 5-Chloro-N-(5-chloro-2-fluorophenyl)-3-(N-(4-ethoxy-3-methoxyphenyl)-N-methylsulfamoyl)thiophene-2-carboxamide], with 820 nM. On the same count and under the same terms, then `CCOc1ccc(N(C)S(=O)(=O)c2cc(Cl)sc2C(=O)Nc2cc(C(F)(F)F)cc(C(F)(F)F)c2)cc1OC` [GR1-002, N-(3,5-bis (trifluoromethyl)phenyl)-5-chloro-3-(N-(4-ethoxy-3-methoxyphenyl)-N-methylsulfamoyl)thiophene-2-carboxamide], with 2020 nM; and `CCOC(=O)c1cccc(-c2nnc(-c3sc(Cl)cc3S(=O)(=O)N(C)c3ccc(OCC)c(OC)c3)o2)c1` [GR1-015, Ethyl 3-(5-(5-chloro-3-(N-(4-ethoxy-3-methoxyphenyl)-N-methylsulfamoyl)thiophen-2-yl)-1,3,4-oxadiazol-2-yl)benzoate], with 3080 nM. Compound `C#CCOc1ccc(C(=O)c2ccc(OC(=O)c3cc(Cl)cc(NC(=O)c4sc(Cl)cc4S(=O)(=O)N(C)c4ccc(OCC)c(OC)c4)c3)cc2)cc1` [GR1-019, 4-(4-(Prop-2-yn-1-yloxy)benzoyl)phenyl 3-chloro-5-(5-chloro-3-(N-(4-ethoxy-3-methoxyphenyl)-N-methylsulfamoyl)thiophene-2-carboxamido)benzoate] gave an EC50 of 66 nM. The same measure, in the same setting: then `CCOc1ccc(N(C)S(=O)(=O)c2cc(Cl)sc2C(=O)Nc2cccc(Cl)c2)cc1OC` [GR1-046, 5-Chloro-N-(3-chlorophenyl)-3-(N-(4-ethoxy-3-methoxyphenyl)-N-methylsulfamoyl)thiophene-2-carboxamide], with 2700 nM; and `CCOc1ccc(N(C)S(=O)(=O)c2cc(Cl)sc2C(=O)Nc2cccc(F)c2)cc1OC` [GR1-047, 5-Chloro-3-(N-(4-ethoxy-3-methoxyphenyl)-N-methylsulfamoyl)-N-(3-fluorophenyl)thiophene-2-carboxamide], with 2530 nM. For the compound `CCOc1ccc(N(C)S(=O)(=O)c2cc(Cl)sc2C(=O)Nc2cccc(Br)c2)cc1OC` [GR1-048, N-(3-bromophenyl)-5-chloro-3-(N-(4-ethoxy-3-methoxyphenyl)-N-methylsulfamoyl)thiophene-2-carboxamide], a half-maximal effect (EC50) was put at 1240 nM. On the same count and under the same terms, then `CCOc1ccc(N(C)S(=O)(=O)c2cc(Cl)sc2C(=O)Nc2cc(Cl)cc(Cl)c2)cc1OC` [GR1-049, 5-Chloro-N-(3,5-dichlorophenyl)-3-(N-(4-ethoxy-3-methoxyphenyl)-N-methylsulfamoyl)thiophene-2-carboxamide], with 790 nM. Compound `CCOc1ccc(N(C)S(=O)(=O)c2cc(Cl)sc2C(=O)Nc2cc(F)cc(Cl)c2)cc1OC` [GR1-050, 5-Chloro-N-(3-chloro-5-fluorophenyl)-3-(N-(4-ethoxy-3-methoxyphenyl)-N-methylsulfamoyl)thiophene-2-carboxamide] came in with an EC50 of 1090 nM.

Consider `CCOc1ccc(N(C)S(=O)(=O)c2cc(Cl)sc2C(=O)Nc2cc(Cl)cc(Br)c2)cc1OC` [GR1-051, N-(3-bromo-5-chlorophenyl)-5-chloro-3-(N-(4-ethoxy-3-methoxyphenyl)-N-methylsulfamoyl)thiophene-2-carboxamide], for which a half-maximal response (EC50) required 3600 nM.

In the case of `CCOc1ccc(N(C)S(=O)(=O)c2cc(Cl)sc2C(=O)Nc2cc(Cl)cc(C(F)(F)F)c2)cc1OC` [GR1-052, 5-Chloro-N-(3-chloro-5-(trifluoromethyl)phenyl)-3-(N-(4-ethoxy-3-methoxyphenyl)-N-methylsulfamoyl)thiophene-2-carboxamide], the concentration giving a half-maximal response (EC50) came out at 1550 nM.

`CCOC(=O)c1cc(Br)cc(NC(=O)c2sc(Cl)cc2S(=O)(=O)N(C)c2ccc(OCC)c(OC)c2)c1` [GR1-054, Ethyl 3-bromo-5-(5-chloro-3-(N-(4-ethoxy-3-methoxyphenyl)-N-methylsulfamoyl)thiophene-2-carboxamido)benzoate] yielded a concentration giving a half-maximal response (EC50) of 564 nM. The same measure, in the same setting: then `CCOc1ccc(N(C)S(=O)(=O)c2cc(Cl)sc2C(=O)Nc2cc(Cl)cc(C(=O)Oc3ccccc3)c2)cc1OC` [GR1-059, Phenyl 3-chloro-5-(5-chloro-3-(N-(4-ethoxy-3-methoxyphenyl)-N-methylsulfamoyl)thiophene-2-carboxamido)benzoate], with 135 nM. Consider `CCOc1ccc(N(C)S(=O)(=O)c2cc(Cl)sc2C(=O)Nc2cc(Cl)cc([N+](=O)[O-])c2)cc1OC` [GR1-064, 5-Chloro-N-(3-chloro-5-nitrophenyl)-3-(N-(4-ethoxy-3-methoxyphenyl)-N-methylsulfamoyl)thiophene-2-carboxamide], for which the response was half-maximal at 578 nM (EC50). On the same count and under the same terms, then `CCOc1ccc(N(C)S(=O)(=O)c2cc(Cl)sc2C(=O)Nc2cc(Cl)cc(C(=O)Oc3ccc(C(C)=O)cc3)c2)cc1OC` [GR1-067, 4-Acetylphenyl 3-chloro-5-(5-chloro-3-(N-(4-ethoxy-3-methoxyphenyl)-N-methylsulfamoyl)thiophene-2-carboxamido)benzoate], with 11 nM. The same measure, in the same setting: then `CCOc1ccc(N(C)S(=O)(=O)c2cc(Cl)sc2C(=O)Nc2cc(Cl)cc(C(=O)Oc3ccc(C(=O)c4ccccc4)cc3)c2)cc1OC` [GR1-068, 4-Benzoylphenyl 3-chloro-5-(5-chloro-3-(N-(4-ethoxy-3-methoxyphenyl)-N-methylsulfamoyl)thiophene-2-carboxamido)benzoate], with 148 nM; and `CCOc1ccc(N(C)S(=O)(=O)c2cc(Cl)sc2C(=O)Nc2cc(Cl)cc(C(=O)Oc3ccc(C(=O)c4ccc(O)cc4)cc3)c2)cc1OC` [GR1-069, 4-(4-Hydroxybenzoyl)phenyl 3-chloro-5-(5-chloro-3-(N-(4-ethoxy-3-methoxyphenyl)-N-methylsulfamoyl)thiophene-2-carboxamido)benzoate], with 211 nM. As for `O=C(O)Cc1cccc(OCCCN(Cc2cccc(C(F)(F)F)c2Cl)CC(c2ccccc2)c2ccccc2)c1` [GW3965, reference compound], the EC50 turned out to be 269 nM.

The test system of the next assay is ABCA1 mRNA. Description: ABCA1 mRNA - HepG2 (qRT-PCR). The assay is classed as cell-based, human. Particulars: Homo sapiens; ABCA1 mRNA-HepG2 assay (Table 7). An excerpt:
qRT-PCR. For cell samples, treated cells were lysed with RLT plus lysis buffer (Qiagen). RNA was isolated with Qiagen RNEASY® Plus columns per manufacturer instructions, then reverse-transcribed to cDNA using […]® III Reverse Transcriptase (200 U/μL, Invitrogen) per supplier protocol. qPCR experiments were either performed with TAQMAN® gene expression master mix (Invitrogen) on a StepOne™ qPCR instrument or with […]® SYBR® Green SuperMix (Quanta Biosciences) on CFX Connect™ Real-Time PCR Detection System (BioRad), with fold-change quantified by ΔΔCt. For animal samples, 100 mg tissue was homogenized in 1 mL acid-guanidinium-phenol based reagent sold under the tradename TRIZOL® (Ambion), mixed vigorously in chloroform, and separated by centrifugation. Aqueous layer containing RNA was added to Qiagen RNEASY® Plus column; remaining stops were as described above for cell lysates.
`CCOc1ccc(N(C)S(=O)(=O)c2ccsc2C(=O)Nc2cccc(C(=O)CC)c2)cc1` [CL1-62, 3-(N-(4-ethoxyphenyl)-N-methylsulfamoyl)-N-(3-propionylphenyl)thiophene-2-carboxamide] gave a half-maximal effective concentration (EC50) of more than 5000 nM. Same read-out and setting: then `CCOc1ccc(N(C)S(=O)(=O)c2ccsc2C(=O)Nc2cccc(C(=O)OC)c2)cc1` [CL1-87, Methyl 3-(3-(N-(4-ethoxyphenyl)-N-methylsulfamoyl)thiophene-2-carboxamido) benzoate], with more than 5000 nM.

Compound `CCOc1ccc(N(C)S(=O)(=O)c2ccsc2C(=O)Nc2cccc(C(=O)OC(C)C)c2)cc1` [CL1-88, Isopropyl 3-(3-(N-(4-ethoxyphenyl)-N-methylsulfamoyl)thiophene-2-carboxamido) benzoate] displayed an EC50 of 4500 nM. Same read-out and setting: then `CCOC(=O)c1cccc(NC(=O)c2sccc2S(=O)(=O)N(C)c2cccc(OCC)c2)c1` [CL2-1, Ethyl 3-(3-(N-(3-ethoxyphenyl)-N-methylsulfamoyl)thiophene-2-carboxamido)benzoate], with more than 5000 nM. On the same count and under the same terms, then `CCCOc1ccc(N(C)S(=O)(=O)c2ccsc2C(=O)Nc2cccc(C(=O)OCC)c2)cc1` [CL2-16, Ethyl 3-(3-(N-methyl-N-(4-propoxyphenyl)sulfamoyl)thiophene-2-carboxamido) benzoate], with 3500 nM; and `CCOC(=O)c1cccc(NC(=O)c2sccc2S(=O)(=O)N(C)c2ccc(OCC)c(OCC)c2)c1` [CL2-43, Ethyl 3-(3-(N-(3,4-diethoxyphenyl)-N-methylsulfamoyl)thiophene-2-carboxamido)benzoate], with 2800 nM; and `CCOc1ccc(N(C)S(=O)(=O)c2cc(Cl)sc2C(=O)Nc2cccc(S(C)(=O)=O)c2)cc1OCC` [CL2-63, 5-Chloro-3-(N-(3,4-diethoxyphenyl)-N-methylsulfamoyl)-N-(3-(methylsulfonyl)phenyl)thiophene-2-carboxamide], with 4800 nM. The same measure, in the same setting: then `CCOc1ccc(N(C)S(=O)(=O)c2cc(Cl)sc2C(=O)Nc2cccc(C(=O)CC)c2)cc1OCC` [CL2-64, 5-Chloro-3-(N-(3,4-diethoxyphenyl)-N-methylsulfamoyl)-N-(3-propionylphenyl)thiophene-2-carboxamide], with more than 5000 nM. In turn, `CCOC(=O)c1cccc(NC(=O)c2sc(Cl)cc2S(=O)(=O)N(C)c2ccc(OCC)c(OC)c2)c1` [CL2-85, Ethyl 3-(5-chloro-3-(N-(4-ethoxy-3-methoxyphenyl)-N-methylsulfamoyl)thiophene-2-carboxamido)benzoate] gave an EC50 of 1100 nM.

With `CCOC(=O)c1cccc(NC(=O)c2sc(Cl)cc2S(=O)(=O)N(C)c2ccc(OCC)cc2F)c1` [CL2-143, Ethyl 3-(5-chloro-3-(N-(4-ethoxy-2-fluorophenyl)-N-methylsulfamoyl)thiophene-2-carboxamido)benzoate], the half-maximal effective concentration (EC50) is 3500 nM.

In turn, `CCOC(=O)c1cccc(NC(=O)c2sc(Cl)cc2S(=O)(=O)N(C)c2ccc(N3CCNCC3)cc2)c1` [CL2-200, Ethyl 3-(5-chloro-3-(N-methyl-N-(4-(piperazin-1-yl)phenyl)sulfamoyl)thiophene-2-carboxamido)benzoate] came in with an EC50 of 3700 nM. Compound `CCOC(=O)c1cccc(NC(=O)c2sc(Cl)cc2S(=O)(=O)N(C)c2ccc(OCC)c(OCC)c2)n1` [CL3-2, Ethyl 6-(5-chloro-3-(N-(3,4-diethoxyphenyl)-N-methylsulfamoyl)thiophene-2-carboxamido)picolinate] displayed a concentration giving a half-maximal response (EC50) of more than 5000 nM.
